Experiments:
[1] = AUC (0 to last) in mouse at 10 mg/kg, po; type: ADME, organism-based; set-up: time 0 - last, route oral, dose 10 mg/kg; conditions: in vivo
[2] = system: Tyrosine-protein kinase ABL1 (Homo sapiens), P00519 [F317L]; experiment: Inhibition of human non-phosphorylated ABL1 F317L mutant (S229 to K512 residues) expressed in mammalian expression system assessed as residual activity at 10 uM by Kinomescan method relative to control
[3] = biological target: Platelet-derived growth factor receptor beta (Homo sapiens) (UniProt P09619); experiment: Inhibition of wild-type human partial length PDGFRbeta (V582 to Y1009 residues) expressed in bacterial expression system assessed as residual activity at 10 uM by Kinomescan method relative to control
[4] = Plasma protein binding in rat; type: ADME, cell-free; conditions: read-out: PPB (converted)
[5] = Apparent permeability of the compound across apical to basolateral side in human Caco-2 cells; type: ADME, cell-based; conditions: read-out: permeability
[6] = biological target: Proto-oncogene tyrosine-protein kinase Src (Homo sapiens) (UniProt P12931); experiment: Inhibition of wild-type human partial length SRC (L240 to L536 residues) expressed in bacterial expression system assessed as residual activity at 10 uM by Kinomescan method relative to control
[7] = Oral bioavailability in mouse at 10 mg/kg; type: ADME, organism-based; conditions: in vivo
[8] = biological target: BDNF/NT-3 growth factors receptor (Homo sapiens) (UniProt Q16620); experiment: Inhibition of wild-type human partial length TRKB (Q547 to G838 residues) expressed in mammalian expression system assessed as residual activity at 10 uM by Kinomescan method relative to control
[9] = Half life in rat hepatocytes; type: ADME, cell-based, Hepatocyte
[10] = biological target: T1, Eukaryotic translation initiation factor 2-alpha kinase 3 (Homo sapiens, UniProt Q9NZJ5); experiment: Inhibition of human His-tagged PERK expressed in Escherichia coli assessed as eIF2alpha phosphorylation by TR-FRET assay
T1 sequence (Q9NZJ5 whole entry): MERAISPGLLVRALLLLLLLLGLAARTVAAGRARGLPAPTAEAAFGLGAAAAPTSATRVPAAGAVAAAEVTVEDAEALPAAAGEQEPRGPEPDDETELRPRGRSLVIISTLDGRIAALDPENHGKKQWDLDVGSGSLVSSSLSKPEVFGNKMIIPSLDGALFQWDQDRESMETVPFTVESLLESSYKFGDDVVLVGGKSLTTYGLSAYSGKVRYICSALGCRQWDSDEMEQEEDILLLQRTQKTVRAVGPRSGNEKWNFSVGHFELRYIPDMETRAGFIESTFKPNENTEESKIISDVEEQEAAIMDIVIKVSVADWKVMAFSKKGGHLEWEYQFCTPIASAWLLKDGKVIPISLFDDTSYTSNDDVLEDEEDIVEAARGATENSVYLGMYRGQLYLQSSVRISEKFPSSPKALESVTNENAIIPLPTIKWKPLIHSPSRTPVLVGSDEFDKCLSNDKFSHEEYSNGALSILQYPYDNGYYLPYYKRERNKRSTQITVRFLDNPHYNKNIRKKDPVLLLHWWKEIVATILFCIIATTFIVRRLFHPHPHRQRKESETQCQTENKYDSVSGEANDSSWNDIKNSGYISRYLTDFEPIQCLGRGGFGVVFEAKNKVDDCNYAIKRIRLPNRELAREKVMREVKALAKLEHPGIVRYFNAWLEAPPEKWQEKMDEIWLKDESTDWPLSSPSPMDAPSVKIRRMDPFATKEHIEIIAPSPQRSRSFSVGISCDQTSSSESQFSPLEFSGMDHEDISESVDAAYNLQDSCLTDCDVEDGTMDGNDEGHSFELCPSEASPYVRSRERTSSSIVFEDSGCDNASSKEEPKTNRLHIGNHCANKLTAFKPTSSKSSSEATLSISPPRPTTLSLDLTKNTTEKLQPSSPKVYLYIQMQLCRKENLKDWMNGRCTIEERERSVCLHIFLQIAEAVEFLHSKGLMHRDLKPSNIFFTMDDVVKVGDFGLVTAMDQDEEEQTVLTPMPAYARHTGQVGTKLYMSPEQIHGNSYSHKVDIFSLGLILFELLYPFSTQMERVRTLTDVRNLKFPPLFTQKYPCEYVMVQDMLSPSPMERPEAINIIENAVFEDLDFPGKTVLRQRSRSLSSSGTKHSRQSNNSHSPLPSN

[11] = Half life in mouse at 10 mg/kg, po; type: ADME, organism-based; conditions: in vivo
[12] = biological target: Angiopoietin-1 receptor (Homo sapiens) (UniProt Q02763); experiment: Inhibition of wild-type human partial length TIE2 (N804 to T1112 residues) expressed in bacterial expression system assessed as residual activity at 10 uM by Kinomescan method relative to control
[13] = biological target: T2, Receptor-interacting serine/threonine-protein kinase 1 (Homo sapiens) (UniProt Q13546); experiment: Inhibition of wild-type human partial length RIPK1 (M1 to K305 residues) expressed in bacterial expression system assessed as residual activity at 10 uM by Kinomescan method relative to control
T2 sequence (whole entry): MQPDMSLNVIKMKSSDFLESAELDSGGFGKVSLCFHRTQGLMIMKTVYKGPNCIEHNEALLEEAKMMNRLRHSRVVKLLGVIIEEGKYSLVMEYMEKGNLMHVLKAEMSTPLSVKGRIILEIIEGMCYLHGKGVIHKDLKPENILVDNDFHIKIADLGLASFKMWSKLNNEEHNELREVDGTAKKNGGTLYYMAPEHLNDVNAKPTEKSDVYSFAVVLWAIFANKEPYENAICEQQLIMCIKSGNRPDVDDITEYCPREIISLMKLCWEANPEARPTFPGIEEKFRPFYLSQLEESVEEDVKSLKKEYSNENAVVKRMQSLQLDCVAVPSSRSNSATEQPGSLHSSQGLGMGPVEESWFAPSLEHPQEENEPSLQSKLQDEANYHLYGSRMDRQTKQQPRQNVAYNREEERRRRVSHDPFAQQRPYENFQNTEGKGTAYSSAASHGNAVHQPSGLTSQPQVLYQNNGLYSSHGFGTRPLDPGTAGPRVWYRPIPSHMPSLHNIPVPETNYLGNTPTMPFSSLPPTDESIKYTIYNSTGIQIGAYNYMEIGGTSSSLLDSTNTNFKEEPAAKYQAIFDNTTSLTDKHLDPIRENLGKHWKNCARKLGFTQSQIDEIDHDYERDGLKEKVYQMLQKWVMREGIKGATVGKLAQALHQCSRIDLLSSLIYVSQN

[14] = Half life in dog hepatocytes; type: ADME, cell-based, Canis lupus familiaris, Hepatocyte
[15] = biological target: Tyrosine-protein kinase receptor UFO (Homo sapiens) (UniProt P30530); experiment: Inhibition of wild-type human partial length AXL (R497 to Y821 residues) expressed in bacterial expression system assessed as residual activity at 10 uM by Kinomescan method relative to control
Sequence of Tyrosine-protein kinase receptor UFO (Homo sapiens) (P30530 whole entry, the tested form may be a part): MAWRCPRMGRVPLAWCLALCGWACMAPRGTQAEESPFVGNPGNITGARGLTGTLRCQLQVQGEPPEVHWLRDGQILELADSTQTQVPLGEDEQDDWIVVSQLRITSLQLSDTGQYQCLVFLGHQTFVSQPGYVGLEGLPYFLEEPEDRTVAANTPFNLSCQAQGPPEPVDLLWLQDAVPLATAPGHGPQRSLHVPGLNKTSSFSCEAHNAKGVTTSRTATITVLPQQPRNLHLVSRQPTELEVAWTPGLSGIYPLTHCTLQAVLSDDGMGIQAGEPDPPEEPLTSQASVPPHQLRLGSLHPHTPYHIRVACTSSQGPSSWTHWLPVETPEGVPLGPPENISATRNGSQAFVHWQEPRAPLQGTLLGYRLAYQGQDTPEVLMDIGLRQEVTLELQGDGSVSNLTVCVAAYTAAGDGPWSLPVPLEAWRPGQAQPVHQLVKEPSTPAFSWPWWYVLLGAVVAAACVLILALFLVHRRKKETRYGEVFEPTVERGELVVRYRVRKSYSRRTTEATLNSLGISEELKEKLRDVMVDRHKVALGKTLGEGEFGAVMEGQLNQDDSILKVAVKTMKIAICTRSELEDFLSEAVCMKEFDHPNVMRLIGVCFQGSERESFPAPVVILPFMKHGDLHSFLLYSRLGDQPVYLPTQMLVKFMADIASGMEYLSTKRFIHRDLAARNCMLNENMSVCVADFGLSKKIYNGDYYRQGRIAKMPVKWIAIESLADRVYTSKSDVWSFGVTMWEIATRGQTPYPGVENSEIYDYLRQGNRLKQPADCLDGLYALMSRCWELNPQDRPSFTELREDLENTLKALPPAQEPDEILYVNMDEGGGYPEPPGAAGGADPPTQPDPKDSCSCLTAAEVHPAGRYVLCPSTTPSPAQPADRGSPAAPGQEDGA

Sequence of Tyrosine-protein kinase ABL1 (Homo sapiens), P00519 [F317L] (P00519 whole entry F317L, the tested form may be a part): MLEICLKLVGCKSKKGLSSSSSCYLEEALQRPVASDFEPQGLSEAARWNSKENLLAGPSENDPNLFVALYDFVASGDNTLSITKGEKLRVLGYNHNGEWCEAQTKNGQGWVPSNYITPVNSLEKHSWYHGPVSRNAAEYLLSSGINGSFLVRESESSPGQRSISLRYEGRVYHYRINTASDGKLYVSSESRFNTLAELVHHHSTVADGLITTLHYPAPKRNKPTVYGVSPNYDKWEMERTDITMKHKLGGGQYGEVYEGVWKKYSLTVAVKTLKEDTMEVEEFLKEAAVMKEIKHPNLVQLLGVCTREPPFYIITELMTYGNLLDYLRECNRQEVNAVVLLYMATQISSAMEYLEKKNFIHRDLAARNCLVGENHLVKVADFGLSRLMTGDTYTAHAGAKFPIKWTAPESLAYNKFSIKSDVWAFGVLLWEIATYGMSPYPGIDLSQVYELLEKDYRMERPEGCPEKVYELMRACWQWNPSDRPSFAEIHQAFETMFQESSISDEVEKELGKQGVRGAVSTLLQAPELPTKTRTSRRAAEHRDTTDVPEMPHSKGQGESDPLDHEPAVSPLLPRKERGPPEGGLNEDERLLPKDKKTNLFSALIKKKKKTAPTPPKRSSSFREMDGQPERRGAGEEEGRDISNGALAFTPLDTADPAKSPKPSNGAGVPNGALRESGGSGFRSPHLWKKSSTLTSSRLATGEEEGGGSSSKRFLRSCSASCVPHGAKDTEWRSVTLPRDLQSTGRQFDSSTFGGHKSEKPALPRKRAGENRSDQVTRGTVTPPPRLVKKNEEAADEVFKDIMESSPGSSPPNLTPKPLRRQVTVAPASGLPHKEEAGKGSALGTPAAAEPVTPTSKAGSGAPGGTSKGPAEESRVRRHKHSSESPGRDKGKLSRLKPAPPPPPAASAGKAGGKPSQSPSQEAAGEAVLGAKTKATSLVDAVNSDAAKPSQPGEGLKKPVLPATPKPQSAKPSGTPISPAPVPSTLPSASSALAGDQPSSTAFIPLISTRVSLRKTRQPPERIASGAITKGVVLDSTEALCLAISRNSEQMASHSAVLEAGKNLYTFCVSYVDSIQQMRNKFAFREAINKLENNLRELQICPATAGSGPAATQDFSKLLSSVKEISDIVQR
Sequence of Angiopoietin-1 receptor (Homo sapiens) (Q02763 whole entry, the tested form may be a part): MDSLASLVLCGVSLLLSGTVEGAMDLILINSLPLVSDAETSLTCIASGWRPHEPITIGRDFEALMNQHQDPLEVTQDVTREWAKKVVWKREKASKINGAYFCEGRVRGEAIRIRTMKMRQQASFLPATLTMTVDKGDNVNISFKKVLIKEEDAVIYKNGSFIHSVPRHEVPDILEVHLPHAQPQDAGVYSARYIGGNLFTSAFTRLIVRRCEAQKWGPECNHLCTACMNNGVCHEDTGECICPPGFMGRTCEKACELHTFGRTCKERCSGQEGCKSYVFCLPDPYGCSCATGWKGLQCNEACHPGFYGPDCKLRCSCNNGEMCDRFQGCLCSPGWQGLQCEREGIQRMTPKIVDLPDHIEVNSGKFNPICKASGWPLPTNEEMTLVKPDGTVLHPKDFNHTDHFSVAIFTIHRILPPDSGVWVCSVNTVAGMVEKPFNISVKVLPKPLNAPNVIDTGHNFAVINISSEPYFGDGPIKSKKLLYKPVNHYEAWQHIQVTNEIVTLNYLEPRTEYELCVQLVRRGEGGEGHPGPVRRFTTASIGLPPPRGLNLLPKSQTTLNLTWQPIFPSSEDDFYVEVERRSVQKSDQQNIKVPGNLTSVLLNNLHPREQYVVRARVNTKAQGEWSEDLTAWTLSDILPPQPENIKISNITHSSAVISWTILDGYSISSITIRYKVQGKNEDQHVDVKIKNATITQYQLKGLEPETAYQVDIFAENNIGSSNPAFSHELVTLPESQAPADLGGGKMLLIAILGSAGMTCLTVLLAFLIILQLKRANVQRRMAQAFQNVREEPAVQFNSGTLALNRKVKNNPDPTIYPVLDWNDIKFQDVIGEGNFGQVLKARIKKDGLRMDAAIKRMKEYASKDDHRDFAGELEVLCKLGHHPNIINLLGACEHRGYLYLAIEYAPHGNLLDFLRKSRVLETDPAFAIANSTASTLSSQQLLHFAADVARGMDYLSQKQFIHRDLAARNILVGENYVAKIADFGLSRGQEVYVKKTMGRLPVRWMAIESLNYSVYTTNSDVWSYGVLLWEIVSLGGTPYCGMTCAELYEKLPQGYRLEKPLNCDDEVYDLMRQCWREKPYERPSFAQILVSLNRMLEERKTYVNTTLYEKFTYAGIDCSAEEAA
Sequence of BDNF/NT-3 growth factors receptor (Homo sapiens) (Q16620 32-822 limits assumed): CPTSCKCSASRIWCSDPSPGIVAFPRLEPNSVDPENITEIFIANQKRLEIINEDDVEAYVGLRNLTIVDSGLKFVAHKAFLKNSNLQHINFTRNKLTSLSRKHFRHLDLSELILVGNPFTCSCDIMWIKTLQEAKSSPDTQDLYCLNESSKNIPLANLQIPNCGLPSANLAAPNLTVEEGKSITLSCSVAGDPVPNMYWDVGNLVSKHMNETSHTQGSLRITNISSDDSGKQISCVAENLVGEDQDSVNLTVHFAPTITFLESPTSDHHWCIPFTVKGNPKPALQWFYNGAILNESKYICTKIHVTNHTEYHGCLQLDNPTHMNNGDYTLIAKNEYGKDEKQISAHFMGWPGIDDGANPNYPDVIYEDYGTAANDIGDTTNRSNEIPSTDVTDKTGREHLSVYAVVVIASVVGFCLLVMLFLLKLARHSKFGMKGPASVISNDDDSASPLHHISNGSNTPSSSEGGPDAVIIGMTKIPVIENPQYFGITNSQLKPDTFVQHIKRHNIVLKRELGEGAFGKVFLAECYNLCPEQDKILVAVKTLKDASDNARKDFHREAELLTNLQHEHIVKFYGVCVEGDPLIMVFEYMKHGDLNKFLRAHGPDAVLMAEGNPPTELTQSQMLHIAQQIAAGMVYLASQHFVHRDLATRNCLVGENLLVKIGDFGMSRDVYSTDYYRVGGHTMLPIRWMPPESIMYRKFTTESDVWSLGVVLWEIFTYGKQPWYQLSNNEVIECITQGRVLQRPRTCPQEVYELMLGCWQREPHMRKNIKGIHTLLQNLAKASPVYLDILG
Sequence of Platelet-derived growth factor receptor beta (Homo sapiens) (P09619 whole entry, the tested form may be a part): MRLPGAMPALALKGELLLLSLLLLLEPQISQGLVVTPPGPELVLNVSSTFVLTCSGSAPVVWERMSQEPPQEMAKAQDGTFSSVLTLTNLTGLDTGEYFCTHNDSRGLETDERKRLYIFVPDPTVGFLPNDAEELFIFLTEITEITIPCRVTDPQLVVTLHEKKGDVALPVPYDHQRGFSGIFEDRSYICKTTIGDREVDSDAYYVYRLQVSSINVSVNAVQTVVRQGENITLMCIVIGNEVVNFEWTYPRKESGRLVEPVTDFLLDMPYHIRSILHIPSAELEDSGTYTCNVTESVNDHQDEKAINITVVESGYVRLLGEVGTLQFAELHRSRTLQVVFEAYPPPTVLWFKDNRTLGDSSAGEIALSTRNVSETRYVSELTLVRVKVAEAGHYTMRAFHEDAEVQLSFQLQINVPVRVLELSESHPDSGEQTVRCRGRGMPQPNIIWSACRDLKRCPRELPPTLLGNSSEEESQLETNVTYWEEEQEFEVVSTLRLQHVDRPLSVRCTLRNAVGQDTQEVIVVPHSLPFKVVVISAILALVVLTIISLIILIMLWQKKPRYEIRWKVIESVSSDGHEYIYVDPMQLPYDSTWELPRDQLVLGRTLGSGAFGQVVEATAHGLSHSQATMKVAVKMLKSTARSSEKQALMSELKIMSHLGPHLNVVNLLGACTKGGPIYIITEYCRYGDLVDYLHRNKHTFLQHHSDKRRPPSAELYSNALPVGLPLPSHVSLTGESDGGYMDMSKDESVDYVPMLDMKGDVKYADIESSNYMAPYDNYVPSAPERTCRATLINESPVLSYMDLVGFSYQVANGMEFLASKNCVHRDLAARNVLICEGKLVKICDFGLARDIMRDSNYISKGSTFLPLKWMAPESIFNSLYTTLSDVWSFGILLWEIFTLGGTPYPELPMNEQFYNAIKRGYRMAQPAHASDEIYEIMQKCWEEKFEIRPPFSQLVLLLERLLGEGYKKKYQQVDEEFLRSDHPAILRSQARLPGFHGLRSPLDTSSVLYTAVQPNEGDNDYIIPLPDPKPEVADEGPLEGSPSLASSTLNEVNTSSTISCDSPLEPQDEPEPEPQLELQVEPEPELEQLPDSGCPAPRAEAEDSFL

AUC(0-t) [1]: 5150 ng·h/mL
Activity [2]: 100%
Activity [3]: 60%
fraction unbound [4]: 0.007
Papp A→B [5]: 22 ×10⁻⁶ cm/s
Activity [6]: 97%
bioavailability [7]: 70%
Activity [8]: 100%
half-life [9]: 0.233 h
IC50 [10]: 2 nM
half-life [11]: 2 h
Activity [12]: 85%
Activity [13]: 100%
half-life [14]: 8.22 h
Activity [15]: 70%
SMILES: CCc1cc(NC(=O)[C@H](O)c2cc(F)cc(F)c2)ccc1-c1cnc(N)c(C(=O)NC(C)C)c1

Source: ChEMBL document CHEMBL4819104, “Discovery of 2-amino-3-amido-5-aryl-pyridines as highly potent, orally bioavailable, and efficacious PERK kinase inhibitors” (Bioorg Med Chem Lett, 2021)
